Test results as given in paper PMC11851430, “Workflow for E3 Ligase Ligand Validation for PROTAC Development” (ACS Chemical Biology, 2025).

Assays:
[1] = target: T1, kinase protein levels in MCF-7 cells (Homo sapiens, UniProt A0A096LP01); assay: TMT-labeled quantitative proteomics; format: cell-based; details: MCF7, 1 µM
T1 construct: endogenous in cells; host or cells: MCF-7
Method: (§1) 50 µl of SDS Lysis Buffer (2% SDS, 50 mM TRIS pH 8.5, 10 mM TCEP, 40 mM CAA) was added to each sample. Cells were transferred into low binding reaction tubes (Eppendorf:
(§2) Methanol/Chloroform Precipitation. 200 µl of methanol and 50 µl of chloroform were added to each sample reaction tube and mixed via vortex. 150 µl of milliQ-H2O were added and samples were vortexed further. Samples were centrifuged for 5 minutes at 15000 g and the aqueous layer above the interphase was removed. 150 µl of methanol was added, samples were vortexed and centrifuged for 10 minutes at 15000 g to precipitate the pellet. The aforementioned wash procedure was repeated twice before transferring the pellet to a new low bind reaction tube in which it was allowed to dry for 5 minutes.
(§3) Dissolving the Protein Pellet and Protein Quantification. 50 µl of digestion buffer (8 M Urea, 50 mM TRIS pH 8) was added to each sample before vortexing and shaking at 750 rpm at room temperature for 10 minutes to solubilize the pellet. Protein quantification via PierceTM […]
(§4) Protein Digestion. Samples were diluted 1:2 with 50 mM TRIS pH 8.5 to reach a final concentration of 4 M Urea. Lys-C (Promega: VA1170) was added at a 1:100 enzyme/substrate ratio. Samples were agitated at 550 rpm and 37 °C for 3 h. Samples were further diluted with 50 mM TRIS pH 8.5 to a final concentration of 1 M Urea and Trypsin (Promega: V5280) was added at a 1:100 enzyme/substrate ratio. Samples were agitated overnight at 550 rpm and 37 °C. The digestion was stopped the following day via addition of TFA to a final concentration […]
(§5) Solid Phase Extraction via C18 Cartridges. Sep-Pak C18 Cartridges (Waters: WAT054955) were used for solid phase extraction of digested peptides. For preconditioning of C18 cartridges, 1 mL of methanol was added to each column followed by 1 mL of solution B (0.1% formic acid, 80% acetonitrile) and 1 mL of solution A (0.1% formic acid, ddH2O) twice. Samples […]
(§6) were loaded to their respective columns and once samples had passed, columns were washed twice with solution A to remove unwanted components from the loading step. Elution of samples was carried out via introduction of 40% and 60% acetonitrile steps. Samples were dried and snap frozen in liquid nitrogen.
(§7) TMT-Labeling. Desalted peptides were dried and resuspended in TMT-labeling buffer (200 mM EPPS pH 8.2, 20% acetonitrile). 10 μg of peptides per condition were subjected to TMT labeling with 1:2.5 peptide TMT ratio (w/w) for 1 h at room temperature. The labeling reaction was quenched by addition of hydroxylamine to a final concentration of 0.5% and incubation at room temperature for 15 minutes. Successful TMT labeling was verified by mixing equimolar ratios of peptides and subjecting the mix to single shot LC-MS/MS analysis. For high pH reversed phase fractionation on a Dionex analytical HPLC, 50 µg of pooled and purified TMT labelled samples were resuspended in 10 mM ammonium-bicarbonate (ABC), 5% acetonitrile, and separated on a 250 mm long C18 column (Aeris Peptide XB-C18, 4.6 mm ID, 2.6 µm particle size; Phenomenex) using a multistep gradient from 100% solvent A (5% acetonitrile, 10 mM ABC in water) to 60% solvent B (90% acetonitrile, 10 mM ABC in water) over 70 minutes. Eluting peptides were collected every 45 seconds into a total of 96 fractions, which were cross-concatenated into 24 fractions and dried in a vacuum concentrator and resuspended in 3% acetonitrile with 0.1% TFA for LC-MS analysis.
(§8) Mass spectrometry data acquisition. Tryptic peptides were analyzed on an Orbitrap Lumos coupled to an easy nLC 1200 (ThermoFisher Scientific) using a 35 cm long, 75 µm ID fused-silica column packed in house with 1.9 µm C18 particles (Reprosil pur, Dr. Maisch), and kept at 50 °C using an integrated column oven (Sonation). HPLC solvents consisted of 0.1% formic acid in water (buffer A) and 0.1% formic acid and 80% acetonitrile in water (buffer B). Assuming

[2] = target: T2, kinase protein levels in MCF-7 cells (Homo sapiens, UniProt Q9BTL3); assay: TMT-labeled quantitative proteomics; format: cell-based; details: protein FAM103A1; MCF7; 1 µM; set5
T2 construct: endogenous in cells; host or cells: MCF-7
Method: as §1, §2, §3, §4, §5, §6, §7, §8

[3] = tested on: kinase protein levels in MCF-7 cells; assay: TMT-labeled quantitative proteomics; format: cell-based, human; details: for kinase degradation: MCF-7 cells, 1 μM, 6 h; for log2FC (compound/DMSO): MCF7, 1 µM, set5
Method: as §1, §2, §3, §4, §5, §6, §7, §8

[4] = target: VHL (Homo sapiens, UniProt P40337); assay: cell-based; set-up: full-length, NanoLuc fusion (Promega N2741); species or system HEK293T; NanoBRET VHL tracer displacement in permeabilized cells, NanoLuc-VHL fusion; details: permeabilized cells; read-out: VHL permeabilized (IC50±sd)/µM
[5] = target: full-length AAK1 (Homo sapiens, UniProt Q2M2I8); assay: NanoBRET target engagement assay, intact and permeabilized cells
Method: (§9) Compounds were pipetted at various concentrations using an Echo acoustic dispenser (Labcyte), immediately followed by Tracer K10 (Promega, Tracer DB ID: T000008) for AAK1 and Aurora A and VHL Tracer (Promega, Tracer DB ID: T000019) for VHL, at an optimum KD concentration chosen from TracerDB ( tracerdb.org), respectively.
(§10) To measure the BRET signal, the NanoBRET® NanoGlo Substrate (Promega:
(§11) N1573) was added as per the manufacturer’s protocol, and filtered luminescence was measured on a PHERAstar plate reader (BMG Labtech) equipped with a luminescence filter pair (450 nm BP filter (donor) and 610 nm LP filter (acceptor)). For NanoBRET® measurement in permeabilized cells, 25 nL of digitonin (0.05 μg/μL) was pipetted into each well using an
(§12) After incubation, the BRET signals were measured by a PHERAstar plate reader (BMG Labtech) following the same procedure as intact NanoBRET® measurement. Competitive displacement data were then normalized to controls and were plotted using GraphPad Prism 9 software employing a normalized 3-parameter curve fit with the following equation:

[6] = target: T3, AURKA (Homo sapiens, UniProt O14965); assay: as above; details: mean of duplicates, ^a values estimated by extrapolation
T3 sequence (O14965 1-403): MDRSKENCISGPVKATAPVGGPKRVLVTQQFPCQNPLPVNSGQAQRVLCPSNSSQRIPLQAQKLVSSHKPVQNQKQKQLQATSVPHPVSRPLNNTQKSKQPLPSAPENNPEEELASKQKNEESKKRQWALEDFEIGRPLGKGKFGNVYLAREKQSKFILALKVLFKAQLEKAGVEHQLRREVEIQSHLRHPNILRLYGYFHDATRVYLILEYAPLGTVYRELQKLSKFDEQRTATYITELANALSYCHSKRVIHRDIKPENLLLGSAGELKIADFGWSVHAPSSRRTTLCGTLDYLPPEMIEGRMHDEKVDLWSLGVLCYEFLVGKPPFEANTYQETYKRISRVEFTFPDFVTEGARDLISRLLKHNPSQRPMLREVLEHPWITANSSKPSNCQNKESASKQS
Method: as §9, §10, §11, §12

[7] = target: T4, kinase protein levels in MCF-7 cells (Homo sapiens, UniProt A0A024RBG1); assay: TMT-labeled quantitative proteomics; format: cell-based; details: protein NUDT4B; MCF7; 1 µM; set2
T4 construct: endogenous in cells; host or cells: MCF-7
Method: as §1, §2, §3, §4, §5, §6, §7, §8

[8] = target: T5, kinase protein levels in MCF-7 cells (Homo sapiens, UniProt A0A0B4J2F0); assay: TMT-labeled quantitative proteomics; format: cell-based; details: protein PIGBOS1; MCF7; 1 µM; set2
T5 construct: endogenous in cells; host or cells: MCF-7
T5 sequence (A0A0B4J2F0 1-54): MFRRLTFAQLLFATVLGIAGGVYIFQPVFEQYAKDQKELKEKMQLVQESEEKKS
Method: as §1, §2, §3, §4, §5, §6, §7, §8

[9] = target: T6, kinase protein levels in MCF-7 cells (Homo sapiens, UniProt A0A0U1RRE5); assay: TMT-labeled quantitative proteomics; format: cell-based; details: protein NBDY; MCF7; 1 µM; set2
T6 construct: endogenous in cells; host or cells: MCF-7
T6 sequence (A0A0U1RRE5 1-68): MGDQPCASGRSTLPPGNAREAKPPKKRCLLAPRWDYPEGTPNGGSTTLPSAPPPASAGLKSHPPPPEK
Method: as §1, §2, §3, §4, §5, §6, §7, §8

[10] = target: T7, kinase protein levels in MCF-7 cells (Homo sapiens, UniProt P0DPI2); assay: TMT-labeled quantitative proteomics; format: cell-based; details: protein GATD3; MCF7; 1 µM; set2
T7 construct: endogenous in cells; host or cells: MCF-7
T7 sequence (P0DPI2 42-268): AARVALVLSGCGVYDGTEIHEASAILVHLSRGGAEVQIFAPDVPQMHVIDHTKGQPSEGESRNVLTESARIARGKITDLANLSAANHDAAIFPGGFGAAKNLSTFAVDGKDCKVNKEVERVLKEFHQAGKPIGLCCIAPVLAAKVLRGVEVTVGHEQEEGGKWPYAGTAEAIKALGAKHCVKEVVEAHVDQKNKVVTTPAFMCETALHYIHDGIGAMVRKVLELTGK
Method: as §1, §2, §3, §4, §5, §6, §7, §8

[11] = tested on: Jurkat cells; assay: CellTiterGlo cell viability assay; format: cell-based, human; details: 24 h
Method: The effects of the compounds on cell viability was determined using the CellTiter-Glo® 2.0 Cell Viability Assay (Promega: G9241) following manufacturer’s protocol. Ten µL of Jurkat cells at […]
After equilibration, PROTACs were titrated at various concentrations using an Echo acoustic […]
volume of CellTiter-Glo® 2.0 reagent (10 µL) was added to each well and cells were incubated for 10 minutes at room temperature. Filtered luminescence was measured on a PHERAstar plate reader (BMG Labtech) and data was evaluated using GraphPad Prism 9 software employing a normalized curve it with the following equation: Y=Bottom + (Top-Bottom)/(1+10(LogEC50-X) *HillSlope).
Sample preparation. Jurkat cells (ATCC © HTB-22) were cultured in RPMI (Thermo: […]

[12] = protein NBPF19;NBPF15;NBPF8;NBPF10;NBPF3;NBPF11;NBPF26;NBPF14;NBPF1;NBPF12
[13] = AAK1 intact (IC50±sd)/μM, NanoBRET, intact cells, mean of duplicates, ^a values estimated by extrapolation
[14] = AAK1 permeabilized (IC50±sd)/μM, NanoBRET, permeabilized cells, mean of duplicates
[15] = AURKA intact (IC50±sd)/μM, intact cells
[16] = AURKA permeabilized (IC50±sd)/μM, permeabilized cells

T1 sequence (A0A096LP01 whole entry): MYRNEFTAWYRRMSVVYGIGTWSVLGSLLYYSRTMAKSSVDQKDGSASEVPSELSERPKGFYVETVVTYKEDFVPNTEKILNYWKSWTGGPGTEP
Sequence of VHL (P40337 whole entry, the tested form may be a part): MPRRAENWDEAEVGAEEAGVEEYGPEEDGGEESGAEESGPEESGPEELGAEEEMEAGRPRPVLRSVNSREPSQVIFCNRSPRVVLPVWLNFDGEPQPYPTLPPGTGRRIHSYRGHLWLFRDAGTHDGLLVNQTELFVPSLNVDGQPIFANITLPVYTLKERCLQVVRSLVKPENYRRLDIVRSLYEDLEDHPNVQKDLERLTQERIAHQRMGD
T2 sequence (Q9BTL3 whole entry): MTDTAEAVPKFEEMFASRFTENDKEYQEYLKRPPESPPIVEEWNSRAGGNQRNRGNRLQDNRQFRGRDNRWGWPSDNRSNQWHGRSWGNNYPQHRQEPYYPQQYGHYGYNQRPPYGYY
Sequence of full-length AAK1 (Q2M2I8 whole entry): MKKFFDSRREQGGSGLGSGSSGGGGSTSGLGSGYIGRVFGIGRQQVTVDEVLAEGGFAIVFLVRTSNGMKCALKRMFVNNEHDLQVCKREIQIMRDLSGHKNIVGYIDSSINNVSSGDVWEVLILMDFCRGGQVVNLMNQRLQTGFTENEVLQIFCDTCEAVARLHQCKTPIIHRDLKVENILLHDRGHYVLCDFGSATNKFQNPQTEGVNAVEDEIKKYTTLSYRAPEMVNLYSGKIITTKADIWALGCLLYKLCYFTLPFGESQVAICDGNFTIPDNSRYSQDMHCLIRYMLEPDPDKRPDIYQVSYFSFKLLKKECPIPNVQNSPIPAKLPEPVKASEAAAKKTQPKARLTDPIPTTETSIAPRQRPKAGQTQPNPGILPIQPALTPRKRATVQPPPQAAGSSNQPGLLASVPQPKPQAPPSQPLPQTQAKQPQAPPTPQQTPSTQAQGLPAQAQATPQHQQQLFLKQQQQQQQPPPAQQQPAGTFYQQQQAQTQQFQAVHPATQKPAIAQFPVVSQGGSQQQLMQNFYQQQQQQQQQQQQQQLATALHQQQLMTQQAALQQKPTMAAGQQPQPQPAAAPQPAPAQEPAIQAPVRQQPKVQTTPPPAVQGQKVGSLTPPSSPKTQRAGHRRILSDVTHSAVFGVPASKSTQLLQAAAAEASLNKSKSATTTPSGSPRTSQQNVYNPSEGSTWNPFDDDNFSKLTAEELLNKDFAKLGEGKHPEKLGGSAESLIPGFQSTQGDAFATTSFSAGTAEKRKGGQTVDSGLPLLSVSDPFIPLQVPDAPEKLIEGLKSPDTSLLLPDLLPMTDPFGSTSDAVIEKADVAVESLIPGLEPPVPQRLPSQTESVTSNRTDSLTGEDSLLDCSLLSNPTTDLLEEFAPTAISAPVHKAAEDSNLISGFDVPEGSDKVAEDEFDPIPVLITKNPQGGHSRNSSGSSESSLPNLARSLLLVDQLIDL
T4 sequence (A0A024RBG1 whole entry): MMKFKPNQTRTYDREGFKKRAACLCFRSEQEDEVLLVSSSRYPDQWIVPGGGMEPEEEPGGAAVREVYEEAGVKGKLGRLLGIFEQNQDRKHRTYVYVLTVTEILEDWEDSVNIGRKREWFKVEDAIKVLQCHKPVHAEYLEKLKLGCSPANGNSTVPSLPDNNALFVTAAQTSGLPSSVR

| P.Value (compound/DMSO) ([1]; protein LINC00493, set5) | log2FC (compound/DMSO) ([1]; protein LINC00493, set5) | P.Value (compound/DMSO) [2] | log2FC (compound/DMSO) [2] | IC50 [4] | IC50 [5, 13] | IC50 [5, 14] | IC50 [6, 15] | IC50 [6, 16] | Compound | kinase degradation [3] | log2FC (compound/DMSO) ([3]; protein ARHGEF5;ARHGEF35) | log2FC (compound/DMSO) [3, 12] | further results |
| --- | --- | --- | --- | --- | --- | --- | --- | --- | --- | --- | --- | --- | --- |
| 0.7132 | 0.05687 | 0.9701 | 0.005351 | 0.97 ± 0.013 µM | ~1.84 µM | 0.081 µM | ~18.9 µM | 4.84 ± 2.01 µM | Cc1ncsc1-c1ccc(CNC(=O)[C@@H]2C[C@@H](O)CN2C(=O)[C@@H](NC(=O)CCOCCOCCOCCOCCOCCOCCN2CCN(c3cc(Nc4cc(C5CC5)[nH]n4)nc(Nc4ccc(CC#N)cc4)n3)CC2)C(C)(C)C)cc1 [4-b] | did not result in significant degradation of any kinase | 0.1142 | 0.1563 | AAK1 intact (IC50±sd)/μM ([5]; NanoBRET, intact cells, mean of duplicates, ^a values estimated by extrapolation): single-digit micromolar; cell permeability / cell penetration ([5]; as shown by the NanoBRET data (intact vs permeabilized cells)): Inefficient cell penetration |
| 0.06841 | 0.3546 | 0.9983 | -0.0003068 | 4.32 ± 1.46 µM | 0.443 ± 0.043 µM | 0.178 ± 0.029 µM | ~5.98 µM | 2.73 ± 0.78 µM | Cc1ncsc1-c1ccc(CNC(=O)[C@@H]2C[C@@H](O)CN2C(=O)[C@@H](NC(=O)CCCCCCN2CCN(c3cc(Nc4cc(C5CC5)[nH]n4)nc(Nc4ccc(CC#N)cc4)n3)CC2)C(C)(C)C)cc1 [4-c] | significant degradation of several kinases | 0.09465 | -0.3485 |  |
|  |  |  |  | 0.366 ± 0.064 µM | 0.126 ± 0.033 µM | 0.038 ± 0.006 µM | 4.62 ± 1.12 µM | 1.52 ± 0.061 µM | CC(=O)N[C@H](C(=O)N1C[C@H](O)C[C@H]1C(=O)NCc1ccc(-c2scnc2C)cc1OCCOCCOCCOCCOCCC(=O)N1CCN(c2cc(Nc3cc(C4CC4)[nH]n3)nc(Nc3ccc(CC#N)cc3)n2)CC1)C(C)(C)C [4-d] | did not result in significant degradation of any kinase |  |  | P.Value (compound/DMSO) ([1]; protein SMIM26, set2): 0.9318; log2FC (compound/DMSO) ([1]; protein SMIM26, set2): 0.01005; P.Value (compound/DMSO) [7]: 0.1315; log2FC (compound/DMSO) [7]: -0.2481; P.Value (compound/DMSO) [8]: 0.6355; log2FC (compound/DMSO) [8]: 0.04834; P.Value (compound/DMSO) [9]: 0.03785; log2FC (compound/DMSO) [9]: -0.3975; P.Value (compound/DMSO) [10]: 0.2539; log2FC (compound/DMSO) [10]: -0.1491 |
| 0.02321 | -0.4581 | 0.2865 | 0.1658 | 1.123 ± 0.005 µM | 0.088 ± 0.003 µM | 0.028 ± 0.001 µM | 0.203 ± 0.01 µM | 0.105 ± 0.007 µM | Cc1ncsc1-c1ccc(CNC(=O)[C@@H]2C[C@@H](O)CN2C(=O)[C@@H](NC(=O)CCOCCOCCN2CCN(c3ccc(Nc4ncc(Cl)c(Nc5ccccc5C(N)=O)n4)cc3)CC2)C(C)(C)C)cc1 [6-a] | significant degradation of several kinases | 0.1364 | -0.2637 | effect on cell viability (cytotoxicity) [11]: particularly pronounced effects on cell viability; IC50 ([11]; Homo sapiens, mean of triplicates, ^b/^c values estimated, read-out: IC50±sd/μM (cell viability)): ~0.8 µM |
